In patent US20230339836A1, “METHOD FOR PRODUCING REDUCED COENZYME Q10 FORM II CRYSTALS” (KANEKA CORPORATION, priority 2020, published 2023):

Columns and labels:
[1] = Saturated concentration calculated from Expressions 3 to 8 for 99.5% (v/v) ethanol; assay type: physicochemical; conditions: calculated by Expressions 7 and 8, natural logarithm
Description: Further, the ethanol concentration of 99.5% (v/v) was assigned to Z of Expressions 3, 4, 5, and 6 to obtain the values of the constants AI, BI, AII, and BII. Using these constants, the Log CI of the saturated concentration CI (% by weight) of the Form I-type crystal and the Log CII of the saturated concentration CII (% by weight) of the Form II-type crystal were obtained at each temperature (converting the unit to Kelvin) shown in Table 5 according to Expressions 7 and 8 above.

[2] = Solubility (saturated concentration) of reduced coenzyme Q10 crystals in hydrous ethanol, HPLC of filtered liquid phase; assay type: physicochemical
Description: The dissolved concentration of reduced coenzyme Q10 in a liquid phase was measured by analyze a liquid phase sample by high performance liquid chromatography under the following conditions.
• Column: SYMMETRY C18 (manufactured by Waters); 250 mm (length), 4.6 mm (inner diameter) • Mobile phase: C2H5OH:CH3OH=4:3 (v:v) • Detection wavelength: 210 nm • Flow rate: 1 ml/min • Retention time of reduced coenzyme Q10: 9.1 min.
The solubility (saturated concentration) (% by weight) of each of a reduced coenzyme Q10 Form I-type crystal (Form I-type crystal) and a reduced coenzyme Q10 Form II-type crystal (Form II-type crystal) in hydrous ethanol with an ethanol concentration per total volume of 99.5% (v/v), 95% (v/v), and 90% (v/v) at temperatures of 298.15K (25° C.), 303.15K (30° C.), 308.15K (35° C.), and 313.15K (40° C.) was obtained.
The solubility was measured by the following procedures.
To approximately 30 g of each hydrous ethanol, approximately 10 g of a Form I-type crystal or a Form II-type crystal was added, the mixture was stirred under a nitrogen atmosphere and maintained for approximately 1 hour at temperatures of 25° C., 30° C., 35° C., and 40° C. Sampling was performed at each temperature and each sample was filtered quickly to obtain a liquid phase sample. Each sample was analyzed under the above HPLC conditions and the solubility was calculated.

[3] = compared with Form I-type crystal; Patent Literature 4; cited from earlier work
[4] = compared with oxidized coenzyme Q10; cited from earlier work
[5] = 90% (v/v) ethanol, 298.15 K (25° C.)
[6] = 90% (v/v) ethanol, 303.15 K (30° C.)
[7] = 90% (v/v) ethanol, 308.15 K (35° C.)
[8] = 90% (v/v) ethanol, 313.15 K (40° C.)
[9] = 95% (v/v) ethanol, 298.15 K (25° C.)
[10] = 95% (v/v) ethanol, 303.15 K (30° C.)
[11] = 95% (v/v) ethanol, 308.15 K (35° C.)
[12] = 95% (v/v) ethanol, 313.15 K (40° C.)
[13] = 99.5% (v/v) ethanol, 298.15 K (25° C.)
[14] = 99.5% (v/v) ethanol, 303.15 K (30° C.)
[15] = 99.5% (v/v) ethanol, 308.15 K (35° C.)
[16] = 99.5% (v/v) ethanol, 313.15 K (40° C.)

Compound	Log of saturated concentration (% by weight) ([1]; 10° C.)	Log of saturated concentration (% by weight) ([1]; 20° C.)	Log of saturated concentration (% by weight) ([1]; 25° C.)	Log of saturated concentration (% by weight) ([1]; 30° C.)	Log of saturated concentration (% by weight) ([1]; 35° C.)	Solubility [2, 5] [% by weight]	Solubility [2, 6] [% by weight]	Solubility [2, 7] [% by weight]	Solubility [2, 8] [% by weight]	Solubility [2, 9] [% by weight]	Solubility [2, 10] [% by weight]	Solubility [2, 11] [% by weight]	Solubility [2, 12] [% by weight]	Solubility [2, 13] [% by weight]	Solubility [2, 14] [% by weight]	Solubility [2, 15] [% by weight]	Solubility [2, 16] [% by weight]	Solubility compared between crystal forms ([2]; hydrous ethanol with any concentration (99.5, 95, 90% v/v))	Stability of crystal form [3]	Oral absorbability [4]
COc1c(O)c(C)c(C/C=C(\C)CC/C=C(\C)CC/C=C(\C)CC/C=C(\C)CC/C=C(\C)CC/C=C(\C)CC/C=C(\C)CC/C=C(\C)CC/C=C(\C)CCC=C(C)C)c(O)c1OC [Form I, reduced coenzyme Q10]	−2.686	−0.584	0.467	1.517	2.568	0.13	0.18	0.29	0.88	0.65	1.01	2.33	8.98	2.01	4.53	12.6	46.3	higher than that of the Form II-type crystal		
COc1c(O)c(C)c(C/C=C(\C)CC/C=C(\C)CC/C=C(\C)CC/C=C(\C)CC/C=C(\C)CC/C=C(\C)CC/C=C(\C)CC/C=C(\C)CC/C=C(\C)CCC=C(C)C)c(O)c1OC [Form II, reduced coenzyme Q10]	−3.858	−2.145	−1.288	−0.432	0.425	0.10	0.13	0.23	0.41	0.37	0.52	0.86	2.81	1.22	2.32	5.51	17.9		much more stable than the conventional reduced coenzyme Q10	
COc1c(O)c(C)c(C/C=C(\C)CC/C=C(\C)CC/C=C(\C)CC/C=C(\C)CC/C=C(\C)CC/C=C(\C)CC/C=C(\C)CC/C=C(\C)CC/C=C(\C)CCC=C(C)C)c(O)c1OC [reduced coenzyme Q10]																				higher oral absorbability than that of oxidized coenzyme Q10
